Residues, ends and D or L forms follow the SMILES beside them. *: point of attachment. X51 = O=C(O)[C@@H](CC(=O)*)SCc1ccc([N+](=O)[O-])cc1; X46 = CC(C)(C)c1ccc(CS[C@@H](CC(=O)*)C(=O)O)cc1; X49 = O=C(O)[C@H](CC(=O)*)SCc1cccc(C(F)(F)F)c1; X39 = O=C(O)[C@H](CC(=O)*)Sc1cc(Cl)cc(Cl)c1; X41 = O=C(O)[C@@H](CC(=O)*)Sc1cc(Cl)ccc1Cl; X43 = O=C(O)[C@H](CC(=O)*)Sc1ccc(Cl)cc1Cl; X50 = O=C(O)[C@H](CC(=O)*)Sc1cc(Cl)ccc1Cl; X47 = O=C(O)[C@@H](CC(=O)*)SCc1ccccc1Cl; X48 = O=C(O)[C@@H](CC(=O)*)SCCCc1ccccc1; X53 = O=C(O)[C@H](CC(=O)*)Sc1ccccc1Cl; X54 = O=C(O)[C@H](CC(=O)*)SCCc1ccccc1; X40 = O=C(O)[C@H](CC(=O)*)SCc1ccccc1; X45 = O=C(O)[C@H](CC(=O)*)SC1CCCCC1; X44 = CC(CC(=O)*)Sc1ccc2ccccc2c1; X42 = O=C(CCSc1ccc2ccccc2c1)*; Bz = O=C(c1ccccc1)*
Biological target: NAD-dependent protein deacylase sirtuin-5, mitochondrial (Homo sapiens, UniProt Q9NXA8)
Experiment: Inhibition of human recombinant N-terminal Strep2-tagged SIRT5 expressed in Escherichia coli BL21 (DE3) using Abz-GVLK(glutaryl)AY(NO2)GV-NH2 as substrate in presence of NAD+ by fluorescence assay

NAD-dependent protein deacylase sirtuin-5, mitochondrial, sequence (Q9NXA8 whole entry): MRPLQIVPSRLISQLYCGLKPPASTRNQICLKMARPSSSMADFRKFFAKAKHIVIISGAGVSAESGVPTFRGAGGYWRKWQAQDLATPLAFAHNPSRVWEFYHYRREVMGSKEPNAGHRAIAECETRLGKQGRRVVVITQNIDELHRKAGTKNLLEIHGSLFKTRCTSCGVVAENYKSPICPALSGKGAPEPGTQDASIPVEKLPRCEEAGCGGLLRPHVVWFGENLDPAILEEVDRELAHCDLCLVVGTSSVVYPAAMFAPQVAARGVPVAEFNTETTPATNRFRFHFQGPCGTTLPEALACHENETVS

Going from `CC(C)C[C@H](NC(=O)[C@@H](NC(=O)CNC(=O)c1ccccc1)C(C)C)C(=O)N[C@@H](CCCCNC(=O)C[C@H](Sc1cc(Cl)cc(Cl)c1)C(=O)O)C(=O)N[C@@H](CCC(=O)O)C(=O)N[C@@H](Cc1ccc(O)cc1)C(=O)NCC(=O)N[C@H](C(N)=O)C(C)C` (Bz-GVLK(X39)EYGV-NH2) to `CC(C)C[C@H](NC(=O)[C@@H](NC(=O)CNC(=O)c1ccccc1)C(C)C)C(=O)N[C@@H](CCCCNC(=O)C[C@@H](Sc1cc(Cl)ccc1Cl)C(=O)O)C(=O)N[C@@H](CCC(=O)O)C(=O)N[C@@H](Cc1ccc(O)cc1)C(=O)NCC(=O)N[C@H](C(N)=O)C(C)C` (Bz-GVLK(X41)EYGV-NH2), the IC50 rises from 86.1 nM to 1980 nM (23-fold).

Compared with `CC(C)C[C@H](NC(=O)[C@@H](NC(=O)CNC(=O)c1ccccc1)C(C)C)C(=O)N[C@@H](CCCCNC(=O)C[C@H](SCc1ccccc1)C(=O)O)C(=O)N[C@@H](CCC(=O)O)C(=O)N[C@@H](Cc1ccc(O)cc1)C(=O)NCC(=O)N[C@H](C(N)=O)C(C)C` (Bz-GVLK(X40)EYGV-NH2), `CC(C)C[C@H](NC(=O)[C@@H](NC(=O)CNC(=O)c1ccccc1)C(C)C)C(=O)N[C@@H](CCCCNC(=O)C[C@H](SCCc1ccccc1)C(=O)O)C(=O)N[C@@H](CCC(=O)O)C(=O)N[C@@H](Cc1ccc(O)cc1)C(=O)NCC(=O)N[C@H](C(N)=O)C(C)C` (Bz-GVLK(X54)EYGV-NH2) is 8.2-fold higher in IC50: 336 nM for the first, 2740 nM for the second.

`CC(C)C[C@H](NC(=O)[C@@H](NC(=O)CNC(=O)c1ccccc1)C(C)C)C(=O)N[C@@H](CCCCNC(=O)CCSc1ccc2ccccc2c1)C(=O)N[C@@H](CCC(=O)O)C(=O)N[C@@H](Cc1ccc(O)cc1)C(=O)NCC(=O)N[C@H](C(N)=O)C(C)C` (Bz-GVLK(X42)EYGV-NH2) and `CC(C)C[C@H](NC(=O)[C@@H](NC(=O)CNC(=O)c1ccccc1)C(C)C)C(=O)N[C@@H](CCCCNC(=O)CC(C)Sc1ccc2ccccc2c1)C(=O)N[C@@H](CCC(=O)O)C(=O)N[C@@H](Cc1ccc(O)cc1)C(=O)NCC(=O)N[C@H](C(N)=O)C(C)C` (stereo not given in full) (Bz-GVLK(X44)EYGV-NH2) cannot be ordered by IC50: greater than 40000 nM for the first, greater than 40000 nM for the second.

Compared with `CC(C)C[C@H](NC(=O)[C@@H](NC(=O)CNC(=O)c1ccccc1)C(C)C)C(=O)N[C@@H](CCCCNC(=O)C[C@H](Sc1ccc(Cl)cc1Cl)C(=O)O)C(=O)N[C@@H](CCC(=O)O)C(=O)N[C@@H](Cc1ccc(O)cc1)C(=O)NCC(=O)N[C@H](C(N)=O)C(C)C` (Bz-GVLK(X43)EYGV-NH2), `CC(C)C[C@H](NC(=O)[C@@H](NC(=O)CNC(=O)c1ccccc1)C(C)C)C(=O)N[C@@H](CCCCNC(=O)C[C@H](Sc1cc(Cl)ccc1Cl)C(=O)O)C(=O)N[C@@H](CCC(=O)O)C(=O)N[C@@H](Cc1ccc(O)cc1)C(=O)NCC(=O)N[C@H](C(N)=O)C(C)C` (Bz-GVLK(X50)EYGV-NH2) is 1.7-fold higher in IC50: 177 nM for the first, 295 nM for the second. The first is the more potent here.

Going from `CC(C)C[C@H](NC(=O)[C@@H](NC(=O)CNC(=O)c1ccccc1)C(C)C)C(=O)N[C@@H](CCCCNC(=O)C[C@H](SC1CCCCC1)C(=O)O)C(=O)N[C@@H](CCC(=O)O)C(=O)N[C@@H](Cc1ccc(O)cc1)C(=O)NCC(=O)N[C@H](C(N)=O)C(C)C` (Bz-GVLK(X45)EYGV-NH2) to `CC(C)C[C@H](NC(=O)[C@@H](NC(=O)CNC(=O)c1ccccc1)C(C)C)C(=O)N[C@@H](CCCCNC(=O)C[C@H](Sc1ccccc1Cl)C(=O)O)C(=O)N[C@@H](CCC(=O)O)C(=O)N[C@@H](Cc1ccc(O)cc1)C(=O)NCC(=O)N[C@H](C(N)=O)C(C)C` (Bz-GVLK(X53)EYGV-NH2), the IC50 falls from greater than 4000 nM to 857 nM.

Compared with `CC(C)C[C@H](NC(=O)[C@@H](NC(=O)CNC(=O)c1ccccc1)C(C)C)C(=O)N[C@@H](CCCCNC(=O)C[C@H](SCc1ccc(C(C)(C)C)cc1)C(=O)O)C(=O)N[C@@H](CCC(=O)O)C(=O)N[C@@H](Cc1ccc(O)cc1)C(=O)NCC(=O)N[C@H](C(N)=O)C(C)C` (Bz-GVLK(X46)EYGV-NH2), `CC(C)C[C@H](NC(=O)[C@@H](NC(=O)CNC(=O)c1ccccc1)C(C)C)C(=O)N[C@@H](CCCCNC(=O)C[C@@H](SCc1ccc([N+](=O)[O-])cc1)C(=O)O)C(=O)N[C@@H](CCC(=O)O)C(=O)N[C@@H](Cc1ccc(O)cc1)C(=O)NCC(=O)N[C@H](C(N)=O)C(C)C` (Bz-GVLK(X51)EYGV-NH2) is 5.1-fold higher in IC50: 793 nM for the first, 4030 nM for the second. The first is the more potent here.

Compared with `CC(C)C[C@H](NC(=O)[C@@H](NC(=O)CNC(=O)c1ccccc1)C(C)C)C(=O)N[C@@H](CCCCNC(=O)C[C@@H](SCc1ccccc1Cl)C(=O)O)C(=O)N[C@@H](CCC(=O)O)C(=O)N[C@@H](Cc1ccc(O)cc1)C(=O)NCC(=O)N[C@H](C(N)=O)C(C)C` (Bz-GVLK(X47)EYGV-NH2), `CC(C)C[C@H](NC(=O)[C@@H](NC(=O)CNC(=O)c1ccccc1)C(C)C)C(=O)N[C@@H](CCCCNC(=O)C[C@@H](SCCCc1ccccc1)C(=O)O)C(=O)N[C@@H](CCC(=O)O)C(=O)N[C@@H](Cc1ccc(O)cc1)C(=O)NCC(=O)N[C@H](C(N)=O)C(C)C` (Bz-GVLK(X48)EYGV-NH2) is 5.9-fold higher in IC50: 352 nM for the first, 2060 nM for the second. The first is the more potent here.

For `CC(C)C[C@H](NC(=O)[C@@H](NC(=O)CNC(=O)c1ccccc1)C(C)C)C(=O)N[C@@H](CCCCNC(=O)C[C@H](SCc1cccc(C(F)(F)F)c1)C(=O)O)C(=O)N[C@@H](CCC(=O)O)C(=O)N[C@@H](Cc1ccc(O)cc1)C(=O)NCC(=O)N[C@H](C(N)=O)C(C)C` (Bz-GVLK(X49)EYGV-NH2), the IC50 was 1120 nM.

Source: ChEMBL document CHEMBL4033793, “Potent and Selective Inhibitors of Human Sirtuin 5” (J Med Chem, 2018)
